Like-named read-outs stand apart in the source and are kept apart here.
Assays:
[1] = target: Thermotoga maritima Fix/EtfABCX supermonomer (ABCX heterotetramer protomer) (Thermotoga maritima); assay: SEC-MALS + other: SEC-SAXS; anaerobic SEC-MALS-SAXS of purified EtfABCX; KW-803 column, room temperature, 0.65 mL/min; 20 mM Tris-HCl pH 8.0, 200 mM NaCl with 0.01% DDM (also buffer only); no additive, NADH, NAD+ or DT in the running buffer
[2] = target: Thermotoga maritima Fix/EtfABCX supermonomer (ABCX heterotetramer protomer) (Thermotoga maritima); assay: as above; remark: listed apart in the source
[3] = target: T1, EtfABCX (Thermotoga maritima, UniProt Q9X1L6+Q9X1L7+Q9X1L8); assay: FAD released by […] SDS and quantified by absorbance; assay type: binding; settings: co-purified; BF-FAD in EtfA, ET-FAD in EtfB, QR-FAD in EtfC
T1 construct: gene TM_1530; operon in pET-21a(+), N-terminal 9xHis tag, E. coli BL21(DE3) deltaiscR, anaerobic purification; superdimer (ABCX)2, 257 kDa, three FAD per supermonomer; with Ferredoxin-like protein FixX (EtfX; two [4Fe-4S] clusters)
T1 sequence (Q9X1L6 2-285): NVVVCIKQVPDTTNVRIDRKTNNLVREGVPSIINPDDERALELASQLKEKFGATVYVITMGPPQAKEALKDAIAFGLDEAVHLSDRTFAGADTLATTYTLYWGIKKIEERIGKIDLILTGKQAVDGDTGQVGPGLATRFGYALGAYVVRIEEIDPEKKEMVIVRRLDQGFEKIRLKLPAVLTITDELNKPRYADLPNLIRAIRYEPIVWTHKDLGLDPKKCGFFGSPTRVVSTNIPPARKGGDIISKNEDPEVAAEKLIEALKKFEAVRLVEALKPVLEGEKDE
T1 sequence (Q9X1L7 1-338): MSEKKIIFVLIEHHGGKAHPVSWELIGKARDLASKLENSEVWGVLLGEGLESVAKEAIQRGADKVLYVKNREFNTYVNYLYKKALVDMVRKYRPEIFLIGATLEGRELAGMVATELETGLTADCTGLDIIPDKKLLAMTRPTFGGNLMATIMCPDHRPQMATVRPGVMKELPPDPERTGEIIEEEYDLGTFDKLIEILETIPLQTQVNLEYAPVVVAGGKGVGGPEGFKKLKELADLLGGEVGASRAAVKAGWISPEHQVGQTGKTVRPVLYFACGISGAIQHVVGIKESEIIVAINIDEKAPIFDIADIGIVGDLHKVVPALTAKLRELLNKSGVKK
T1 sequence (Q9X1L8 1-438): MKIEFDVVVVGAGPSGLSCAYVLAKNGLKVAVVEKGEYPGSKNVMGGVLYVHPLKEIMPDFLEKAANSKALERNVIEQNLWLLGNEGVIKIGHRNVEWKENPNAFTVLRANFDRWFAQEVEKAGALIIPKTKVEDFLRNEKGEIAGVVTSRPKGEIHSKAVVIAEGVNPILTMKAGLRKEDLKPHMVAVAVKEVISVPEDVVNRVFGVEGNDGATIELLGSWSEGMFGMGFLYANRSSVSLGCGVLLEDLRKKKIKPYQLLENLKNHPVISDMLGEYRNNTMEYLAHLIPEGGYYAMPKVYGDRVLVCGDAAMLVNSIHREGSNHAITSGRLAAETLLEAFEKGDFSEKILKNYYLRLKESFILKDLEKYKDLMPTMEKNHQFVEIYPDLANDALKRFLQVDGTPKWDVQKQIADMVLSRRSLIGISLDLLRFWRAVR
T1 sequence (Q9X1L9 1-92 partner): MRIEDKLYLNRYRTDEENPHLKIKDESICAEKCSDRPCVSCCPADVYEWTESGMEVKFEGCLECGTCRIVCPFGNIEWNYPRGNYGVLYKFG

[4] = target: T2, EtfAB (Thermotoga maritima, UniProt Q9X1L6+Q9X1L7); assay: FAD released by […] SDS and quantified by absorbance; assay type: binding; settings: co-purified; BF-FAD site in EtfA and ET-FAD site in EtfB
T2 construct: gene TM_1530; recombinant EtfAB heterodimer from E. coli BL21(DE3) deltaiscR, 9xHis tag, 69 kDa expected, two FAD per heterodimer, purified anaerobically
T2 sequence (Q9X1L6 entry or part of it): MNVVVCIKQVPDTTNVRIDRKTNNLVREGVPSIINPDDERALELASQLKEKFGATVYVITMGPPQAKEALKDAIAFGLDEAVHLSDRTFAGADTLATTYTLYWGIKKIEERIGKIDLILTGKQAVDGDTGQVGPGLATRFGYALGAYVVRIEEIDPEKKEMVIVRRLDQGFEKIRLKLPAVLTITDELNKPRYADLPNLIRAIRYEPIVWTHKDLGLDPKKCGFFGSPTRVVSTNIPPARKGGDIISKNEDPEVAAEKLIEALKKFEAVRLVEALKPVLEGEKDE
T2 sequence (Q9X1L7 entry or part of it): as the sequence (Q9X1L7 1-338) above

[5] = target: T2, EtfAB; assay: anaerobic SEC-SAXS with in-line UV-visible spectroscopy (flavin reduction, compaction); assay type: binding; settings: 20 mM Tris-HCl pH 8.0, 200 mM NaCl, room temperature
[6] = target: T1, EtfABCX; assay: anaerobic SEC-MALS-SAXS with in-line UV-visible spectroscopy; assay type: binding; settings: NAD+ in running buffer, 20 mM Tris-HCl pH 8.0, 200 mM NaCl, 0.01% DDM

Thermotoga maritima Fix/EtfABCX supermonomer (ABCX heterotetramer protomer) (complex)
stoichiometry N [1]: 2
stoichiometry N [2]: 4

Cc1cc2nc3c(=O)[nH]c(=O)nc-3n(C[C@H](O)[C@H](O)[C@H](O)COP(=O)(O)OP(=O)(O)OC[C@H]3O[C@@H](n4cnc5c(N)ncnc54)[C@H](O)[C@@H]3O)c2cc1C [FAD]
FAD released by 1% SDS and quantified by absorbance [3]: approximately three and two molecules of FAD per EtfABCX supermonomer and EtfAB heterodimer, respectively
FAD released by 1% SDS and quantified by absorbance [4]: approximately three and two molecules of FAD per EtfABCX supermonomer and EtfAB heterodimer, respectively

NC(=O)C1=CN([C@@H]2O[C@H](COP(=O)(O)OP(=O)(O)OC[C@H]3O[C@@H](n4cnc5c(N)ncnc54)[C@H](O)[C@@H]3O)[C@@H](O)[C@H]2O)C=CC1 [NADH]
anaerobic SEC-SAXS with in-line UV-visible spectroscopy (flavin reduction, compa) ([5]; excess NADH in running buffer): EtfAB in the presence of excess NADH indicated that its FAD cofactors were fully reduced

NC(=O)c1ccc[n+]([C@@H]2O[C@H](COP(=O)(O)OP(=O)(O)OC[C@H]3O[C@@H](n4cnc5c(N)ncnc54)[C@H](O)[C@@H]3O)[C@@H](O)[C@H]2O)c1 [NAD^+]
anaerobic SEC-MALS-SAXS with in-line UV-visible spectroscopy [6]: likely due to the formation of an EtfABCX-NAD^+ complex
anaerobic SEC-SAXS with in-line UV-visible spectroscopy (flavin reduction, compa) ([5]; excess NAD+ in running buffer, as-purified enzyme): EtfAB in the presence of NAD^+ led the enzyme into a more extended state

From PMC10765413, “Correlating Conformational Equilibria with Catalysis in the Electron Bifurcating EtfABCX of Thermotoga maritima” (Biochemistry, 2023)
